Reference: patent publication US12016943B2, “Antiperspirant or deodorant composition” (Firmenich SA, priority 2016, dated 2024)

What was measured:
Type in all cases: physicochemical
[1] = Assessment of coloration of deodorant or antiperspirant formulations containing perfuming ingredients with or without Haloscent D; parameters: key: CO: color; COYE: yellow color; SCOYE: slight yellow color; VCOYE: very yellow color; NC: no color; DECO: discoloration; CL: cloud; VCL: very cloud; WH: white; VCOBR: very brown color; COPI: ping color; conditions: perfuming ingredient 0.5 wt %, after 15 days; for Coloration of deodorant spray: DEO SPRAY + Haloscent D 0.5 wt %
Method: (§1) Preparation of an Antiperspirant Spray Formulation: Using a high speed stirrer, Silica (Table 1) and Quaternium-18-Hectorite (Table 1) were added to the Isopropyl miristate (Table 1) and Cyclomethicone mixture (Table 1). Once completely swollen, Aluminium Chlorohydrate (Table 1) was added portion wise under stirring until the mixture was homogeneous and without lumps. The aerosol cans were filled with 25% Suspension of the suspension and 75% of Propane/Butane (2.5 bar).
(§2) Preparation of Deodorant Spray Formulation: All the ingredients according to the sequence of the Table 2 were mixed and dissolved. Then the aerosol cans were filled, crimp and add the propellant (Aerosol filling: 40% active solution 60% Propane/Butane 2.5 bar).
(§3) Part A was prepared by sprinkling little by little the Hydroxyethylcellulose (Table 3) in the water (Table 3) whilst rapidly stirring with the turbine. Stirring was continued until the Hydroxyethylcellulose had entirely swollen and giving a limpid gel. Then, Part B (Table 3) was poured little by little in Part A whilst continuing stirring until the whole was homogeneous. Part C was added (Table 3).
(§4) Preparation of a Deodorant Stick Formulation: All the components of Part A were weighted (Table 4) and heated up to 70-75° C. Ceteareth-25 (Table 4) was added once the other Part A ingredients were mixed and heated. Once the Ceteareth-25 was dissolved, the Stearic Acid was added. Part B was prepared by dissolving the Triclosan (Table 4) in 1,2 Propylene Glycol (Table 4). Water which has evaporated was added. Slowly under mixing, Part B was poured into part A. To stock, a plastic bag into the bucket was put in to be sealed after cooling. Moulds was filled at about 70° C.
(§5) Preparation of an Antiperspirant Stick Formulation: All the components of Part A were weighted (Table 5), heated up to 70-75° C. and mixed well. Ingredient of Part B was dispersed in Part A. The mixture was mixed and putted into a tick at 65° C.
(§6) Assessment of Coloration in the Perfuming Ingredients: To set of deodorant or antiperspirant formulations of point a) to e) has been prepared. A perfuming ingredient (0.5 wt %—Table 6, 7 and 8) was added to the first set a and a perfuming ingredient (0.5 wt %—Table 6, 7 and 8) and Haloscent® D (0.5 wt %) were added to the second set. All these formulations were placed at 3° C. and 45° C. for several weeks. All formulations were evaluated in comparison with unperfumed deodorant or antiperspirant formulation. The coloration of each formulation was assessed by a minimum of 2 panelists.

[2] = as above; parameters: key: CO: color; COYE: yelow color; VSCOYE: very slight yellow color; SCOYE: slight yellow color; VCOYE: very yellow color; NC: no color; DECO: decoloration; CL: cloud; VCL: very cloud; WH: white; VCOBR: very brown color; COPI: ping color; conditions: perfuming ingredient 0.5 wt %, after 15 days
Method: as §1, §2, §3, §4, §5, §6

[3] = as above; parameters: key to Coloration of antiperspirant stick: CO: color; COYE: yelow color; VSCOYE: very slight yellow color; SCOYE: slight yellow color; VCOYE: very yellow color; NC: no color; DECO: decoloration; CL: cloud; VCL: very cloud; WH: white; VCOBR: very brown color; COPI: ping color; conditions: perfuming ingredient 0.5 wt %; for Coloration of antiperspirant stick: after 7 days
Method: as §1, §2, §3, §4, §5, §6

[4] = AP SPRAY + Haloscent D 0.5 wt %, 3° C.
[5] = AP SPRAY + Haloscent D 0.5 wt %, 45° C.
[6] = DEO ROLL-ON + Haloscent D 0.5 wt %, 3° C.
[7] = DEO ROLL-ON + Haloscent D 0.5 wt %, 45° C.
[8] = DEO SPRAY + Haloscent D 0.5 wt %, 3° C.
[9] = DEO SPRAY + Haloscent D 0.5 wt %, 45° C.
[10] = DEO STICK + Haloscent D 0.5 wt %, 3° C.
[11] = DEO STICK + Haloscent D 0.5 wt %, 45° C.
[12] = AP Stick + Haloscent D 0.5 wt %, 3° C.
[13] = AP Stick + Haloscent D 0.5 wt %, 45° C.

Row | Molecule | Coloration of antiperspirant spray ([2]; AP SPRAY, 45° C.) | Coloration of deodorant roll-on [2, 6] | Coloration of deodorant roll-on [2, 7] | Coloration of deodorant roll-on ([2]; DEO ROLL-ON, 3° C.) | Coloration of deodorant spray [2, 8] | Coloration of deodorant spray [2, 9] | Coloration of deodorant spray ([2]; DEO SPRAY, 3° C.) | Coloration of deodorant spray ([2]; DEO SPRAY, 45° C.) | Coloration of deodorant stick [2, 10] | Coloration of deodorant stick [2, 11] | Coloration of deodorant stick ([2]; DEO STICK, 3° C.) | Coloration of deodorant stick ([2]; DEO STICK, 45° C.) | Coloration of antiperspirant stick [3, 12] | Coloration of antiperspirant stick [3, 13] | Coloration of antiperspirant stick ([3]; AP Stick, 3° C.) | Coloration of antiperspirant stick ([3]; AP Stick, 45° C.) | Coloration of deodorant roll-on ([2]; DEO ROLL-ON, 45° C.) | Coloration of antiperspirant spray ([2]; AP SPRAY, 3° C.) | Coloration of deodorant roll-on [1, 7] | other results
1 | CC(C)c1ccc2c(c1)OCC(=O)CO2 [CALONE, 7-ISOPROPYL-2H,4H-1,5-BENZODIOXEPIN-3-ONE] | SCOYE | NC | CO | NC | CO | CO | CO | CO | COPI | VCOBR | COPI | VCOBR | – | – | – | – | – | – | – | Coloration of antiperspirant spray [1, 4]: COYE; Coloration of antiperspirant spray [1, 5]: COYE; Coloration of antiperspirant spray ([1]; AP SPRAY, 3° C.): COYE; Coloration of deodorant roll-on ([1]; DEO ROLL-ON, 45° C.): DECO
2 | c1ccc2[nH]ccc2c1 [2,3-BENZOPYRROLE] | – | NC | – | NC | – | – | – | – | NC | NC | NC | SCOYE | COPI | VSCOYE | DECO | VSCOYE | NC | – | – | Coloration of deodorant roll-on ([3]; DEO ROLL-ON + Haloscent D 0.5 wt %, 45° C., after 15 days): VSCOYE
3 | 1-(3,3-dimethyl-1-cyclohexen-1-yl)-4-penten-1-one (A) + 1-(5,5-dimethyl-1-cyclohexen-1-yl)-4-penten-1-one (B) [DYNASCONE] | – | WH | SCOYE | VCL | – | – | – | – | SCOYE | VCOYE | NC | VCOYE | – | – | – | – | NC | – | – | –
4 | CC(C)=CCCC(C)CCO (racemic) [(+−)-3,7-DIMETHYL-6-OCTEN-1-OL] | NC | NC | NC | NC | NC | NC | NC | NC | SCOYE | NC | NC | NC | VSCOYE | VSCOYE | DECO | DECO | NC | NC | – | Coloration of antiperspirant spray [2, 4]: SCOYE; Coloration of antiperspirant spray [2, 5]: SCOYE
5 | CCCCCOC(=O)c1ccccc1O [AMYLE SALICYLATE, PENTYL 2-HYDROXYBENZOATE] | – | WH | VCL | VCL | – | – | – | – | NC | NC | NC | NC | VSCOPI | VSCOPI | VSCOPI | NC | NC | – | – | –
6 | C=C(CC)CCCC(C)(C)O [2-METHYL-6-METHYLIDENEOCTAN-2-OL] | – | NC | NC | NC | – | – | – | – | SCOYE | NC | NC | NC | – | – | – | – | NC | – | – | –

Now from value to molecule, other results behind:

Row | Coloration of antiperspirant spray ([2]; AP SPRAY, 45° C.) | Coloration of deodorant roll-on [2, 6] | Coloration of deodorant roll-on [2, 7] | Coloration of deodorant roll-on ([2]; DEO ROLL-ON, 3° C.) | Coloration of deodorant spray [2, 8] | Coloration of deodorant spray [2, 9] | Coloration of deodorant spray ([2]; DEO SPRAY, 3° C.) | Coloration of deodorant spray ([2]; DEO SPRAY, 45° C.) | Coloration of deodorant stick [2, 10] | Coloration of deodorant stick [2, 11] | Coloration of deodorant stick ([2]; DEO STICK, 3° C.) | Coloration of deodorant stick ([2]; DEO STICK, 45° C.) | Coloration of antiperspirant stick [3, 12] | Coloration of antiperspirant stick [3, 13] | Coloration of antiperspirant stick ([3]; AP Stick, 3° C.) | Coloration of antiperspirant stick ([3]; AP Stick, 45° C.) | Coloration of deodorant roll-on ([2]; DEO ROLL-ON, 45° C.) | Coloration of antiperspirant spray ([2]; AP SPRAY, 3° C.) | Coloration of deodorant roll-on [1, 7] | Molecule | other results
7 | NC | WH | CL | VCL | – | – | NC | NC | NC | NC | NC | NC | – | – | – | – | VCL | NC | – | O=C1CC/C=C\CCCCCCCCCC1 [EXALTENONE, (Z)-4-CYCLOPENTADECEN-1-ONE] | Coloration of deodorant spray ([1]; 3° C.): COYE; Coloration of deodorant spray ([1]; 45° C.): COYE; Coloration of antiperspirant spray [2, 4]: NC; Coloration of antiperspirant spray [2, 5]: NC
8 | – | WH | – | VCL | – | – | – | – | NC | VCOYE | NC | VCOYE | – | – | – | – | NC | – | COYE | (+−)-(3E)-3-methyl-4-(2,6,6-trimethyl-2-cyclohexen-1-yl)-3-buten-2-one (A) + (+−)-(1E)-1-(2,6,6-trimethyl-2-cyclohexen-1-yl)-1-penten-3-one (B) [ISORALDEINE 70P] | –
9 | – | VCL | – | VCL | – | – | – | – | NC | NC | NC | NC | – | – | – | – | NC | – | COYE | CCC(=O)OCC(=O)O[C@@H](C)[C@@H]1CCCC(C)(C)C1 [ROMANDOLIDE, 2-{(1S)-1-[(1R)-3,3-dimethylcyclohexyl]ethoxy}-2-oxoethyl propionate] | –
10 | NC | WH | – | VCL | NC | NC | NC | NC | NC | NC | NC | NC | – | – | – | – | SCOYE | NC | COYE | (+−)-(4E)-3-METHYL-4-CYCLOPENTADECEN-1-ONE (A) + (+−)-(5E)-3-METHYL-5-CYCLOPENTADECEN-1-ONE (B) + (+−)-(5Z)-3-METHYL-5-CYCLOPENTADECEN-1-ONE (C) [MUSCENONE DELTA] | Coloration of antiperspirant spray [1, 4]: COYE; Coloration of antiperspirant spray [1, 5]: COYE
